The source of these data is patent US10294212B2 (CURADEV PHARMA PRIVATE LTD., priority 2013, dated 2019).

One assay addresses IDO1 in HeLa cells (Homo sapiens (Human), UniProt P14902). Briefly: HeLa cell based IDO1 assay (IFNγ-induced, KYN in supernatant). As to the method:
HeLa cells were obtained from ATCC and maintained in DMEM supplemented with sodium bicarbonate (2.1 g/L), HEPES (4.1 g/L), L-glutamine (2 mM), non-essential amino acid (84 mg/L) and fetal bovine serum (10% FBS) and maintained at 95% humidity and 5% CO2 in a 37° C. incubator. Unless otherwise stated, all materials were procured from Sigma. Upon incubation with gamma-interferon (IFNγ ), HeLa cells express IDO1, which catalyzes the formation of N-formyl kynurenine from tryptophan present in growth medium. The assay was performed as follows:
Cells were plated in medium (300 μL) at a density of 0.1 million per well of a 48 well plate and hIDO1 was induced by overnight treatment with IFNγ (50 ng/mL) (Peprotech, USA). The following day, cells were washed to remove IFNγ and were incubated with specific concentrations of test compounds (typically 10 μM to 1 nM, final volume 300 μL) in Hanks Balanced Salt Solution (HBSS) containing 80 μM L-tryptophan. Following incubation, supernatant (150 μL) was transferred to a 96 well plate into which 30%TCA (304) was added and the contents further incubated at 65° C. for 15 min to fully convert N-formylkynurenine to kynurenine. The reaction mixture was then centrifuged to remove sediments and the KYN in the supernatant was estimated by UV-visible absorption spectroscopy at 360 nm using a Waters HPLC system fitted with a C-18 column. (Xiangdong Liu et al. Blood 2010, Vol-117, 3520-30; Sono described above).
Percent inhibition at each concentration of test compounds was determined by estimating the decrease in KYN with reference to the reaction control with 1% DMSO vehicle. Data were analyzed using nonlinear regression to generate IC50 values using Graph Pad Prism® 5.

For assay [1], the target named is Human TDO (hTDO)-transfected CHO-K1 cells (Homo sapiens (Human), UniProt P48775). Briefly: CHO-K1 cell based TDO assay. The following applies: hTDO cellular assay. The gist of the method: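 Stably hTDO-expressing CHO-K1 cells were exposed to compounds (typically 31 μM to 10 nM) in HBSS with 80 μM L-tryptophan for 2 h. TCA-treated supernatant was heated at 65° C for 15 min to convert N-formylkynurenine, then kynurenine was quantified by LC/MS/MS. IC50 came from percent inhibition versus DMSO control.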
Human TDO (hTDO)-transfected CHO-K1 cells, sequence (P48775 whole entry): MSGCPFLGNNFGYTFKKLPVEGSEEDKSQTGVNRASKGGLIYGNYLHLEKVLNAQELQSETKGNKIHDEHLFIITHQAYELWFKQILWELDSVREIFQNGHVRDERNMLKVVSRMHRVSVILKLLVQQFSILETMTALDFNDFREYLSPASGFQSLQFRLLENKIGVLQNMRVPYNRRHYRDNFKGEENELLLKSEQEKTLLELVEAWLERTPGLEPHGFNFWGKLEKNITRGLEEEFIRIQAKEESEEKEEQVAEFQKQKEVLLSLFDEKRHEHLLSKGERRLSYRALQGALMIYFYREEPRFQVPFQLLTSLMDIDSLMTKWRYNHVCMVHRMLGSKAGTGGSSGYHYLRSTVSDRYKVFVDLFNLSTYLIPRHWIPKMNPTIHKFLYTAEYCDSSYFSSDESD

Assay [2] concerns the target Human indoleamine 2,3-dioxygenase1 (hIDO1) (Homo sapiens (Human), UniProt P14902). Nature of the assay: In-vitro IDO1 enzyme assay (conversion of L-tryptophan to KYN). The format is biochemical. To be noted: read-out: IC50 (IDO1) Enz. The gist of the method:
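His-tagged hIDO1 (10 nM, E. coli-expressed) incubated with 30 μM L-tryptophan, 20 mM ascorbate, 10 μM methylene blue and 100 μg/mL catalase in 50 mM potassium phosphate pH 6.5, 30 min at 37 °C. TCA stop, then 65 °C hydrolysis; KYN measured by HPLC-UV at 360 nm or LC/MS/MS. IC50 by nonlinear regression versus 1% DMSO control.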

Human indoleamine 2,3-dioxygenase1 (hIDO1), sequence (P14902 whole entry): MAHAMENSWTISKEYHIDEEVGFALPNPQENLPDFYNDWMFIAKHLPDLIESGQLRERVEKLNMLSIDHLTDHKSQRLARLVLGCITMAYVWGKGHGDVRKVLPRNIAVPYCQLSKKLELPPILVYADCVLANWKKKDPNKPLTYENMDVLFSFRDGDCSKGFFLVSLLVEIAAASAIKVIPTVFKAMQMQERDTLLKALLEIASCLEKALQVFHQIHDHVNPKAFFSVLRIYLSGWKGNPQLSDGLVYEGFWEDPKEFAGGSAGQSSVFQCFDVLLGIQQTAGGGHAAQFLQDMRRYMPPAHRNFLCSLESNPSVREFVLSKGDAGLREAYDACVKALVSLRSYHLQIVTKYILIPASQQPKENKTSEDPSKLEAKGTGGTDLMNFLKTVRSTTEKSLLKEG
IDO1 in HeLa cells, sequence (P14902 whole entry): as above

Turning to `Nc1oc2c(/C=C/c3ccccc3)nccc2c1Nc1ccc(F)c(Cl)c1` [Compound 280, N^3-(3-Chloro-4-fluorophenyl)-7-styrylfuro[2,3-c]pyridine-2,3-diamine], the IC50 is less than 200 nM against IDO1 in HeLa cells, 500 to 2000 nM in assay [1] and less than 200 nM in assay [2].

For `COc1cc2c(Nc3ccc(F)c(Cl)c3)c(N)oc2c(-c2ccc(F)cc2)n1` [Compound 174, N^3-(3-chloro-4-fluorophenyl)-7-(4-fluorophenyl)-5-methoxyfuro[2,3-c]pyridine-2,3-diamine], the half-maximal inhibitory concentration (IC50) was 200 to 1000 nM at IDO1 in HeLa cells, 500 to 2000 nM in assay [1] and less than 200 nM in assay [2].

Regarding `Nc1oc2cnccc2c1Nc1cc(Cl)ccc1Cl` [Compound 55, N^3-(2,5-Dichlorophenyl)furo[2,3-c]pyridine-2,3-diamine], the IC50 at IDO1 in HeLa cells is less than 200 nM; in assay [1] it was more than 2000 nM; in assay [2], more than 1000 nM.

Consider `Nc1oc2c(-c3ccncc3)nccc2c1Nc1cccc(Cl)c1` [Compound 217, N^3-(3-Chlorophenyl)-7-(pyridin-4-yl)furo[2,3-c]pyridine-2,3-diamine], for which the values for the IC50 (at IDO1 in HeLa cells; in assay [1]; in assay [2]) were less than 200 nM, less than 500 nM and less than 200 nM, respectively.

Regarding `Nc1sc2ccccc2c1Nc1ccc(F)cc1` [Compound 231, N^3-(4-Fluorophenyl)benzo[b]thiophene-2,3-diamine], the 50% inhibitory concentration (IC50) on IDO1 in HeLa cells was 200 to 1000 nM; in assay [1], more than 2000 nM; in assay [2], 200 to 1000 nM.

As to `Cc1cc(-c2nccc3c(Nc4cccc(Cl)c4)c(N)oc23)ccn1` [Compound 238, N^3-(3-Chlorophenyl)-7-(2-methylpyridin-4-yl)furo[2,3-c]pyridine-2,3-diamine], the half-inhibitory concentration (IC50) on IDO1 in HeLa cells was less than 200 nM; in assay [1], 500 to 2000 nM; in assay [2], less than 200 nM.

As to `CNC(=O)c1cc(-c2nccc3c(Nc4ccc(F)cc4)c(N)oc23)ccn1` [Compound 224, 4-(2-Amino-3-((4-fluorophenyl)amino)furo[2,3-c]pyridin-7-yl)-N-methylpicolinamide], the figures for the IC50 (against IDO1 in HeLa cells; in assay [1]; in assay [2]) were less than 200 nM, less than 500 nM and less than 200 nM, respectively.

As for `Nc1oc2c(-c3ccncc3)nccc2c1Nc1cccc(C(F)(F)F)c1` [Compound 203, 7-(Pyridin-4-yl)-N^3-(3-(trifluoromethyl)phenyl)furo[2,3-c]pyridine-2,3-diamine], the IC50 is less than 200 nM against IDO1 in HeLa cells, 500 to 2000 nM in assay [1] and less than 200 nM in assay [2].

Regarding `O=C(Nc1oc2cnccc2c1Nc1ccc(F)c(Cl)c1)OCc1ccccc1` [Compound 139, Benzyl (3-((3-chloro-4-fluorophenyl)amino)furo[2,3-c]pyridin-2-yl)carbamate], the half-inhibitory concentration (IC50) against IDO1 in HeLa cells is more than 1000 nM; in assay [1] it was 500 to 2000 nM; in assay [2], more than 1000 nM.

Take `N#Cc1nccc2c(Nc3cc(F)cc(F)c3)c(N)oc12` [Compound 186, 2-Amino-3-((3,5-difluorophenyl)amino)furo[2,3-c]pyridine-7-carbonitrile]: the values for the IC50 (on IDO1 in HeLa cells; in assay [1]; in assay [2]) were more than 1000 nM, 500 to 2000 nM and more than 1000 nM, respectively.

As to `Nc1oc2cnccc2c1Nc1ccc(F)c(Cl)c1F` [Compound 44, N^3-(3-Chloro-2,4-difluorophenyl)furo[2,3-c]pyridine-2,3-diamine], the half-inhibitory concentration (IC50) at IDO1 in HeLa cells was less than 200 nM; in assay [1], 500 to 2000 nM; in assay [2], 200 to 1000 nM.

As for `Nc1oc2cnccc2c1Nc1cccc(C(F)(F)F)c1` [Compound 26, N^3-(3-(Trifluoromethyl)phenyl)furo[2,3-c]pyridine-2,3-diamine], the concentration for half-maximal inhibition (IC50) on IDO1 in HeLa cells was less than 200 nM; in assay [1], 500 to 2000 nM; in assay [2] it was less than 200 nM.

As for `COc1cc2c(Nc3ccc(F)c(Cl)c3)c(N)oc2c(I)n1` [Compound 167, N^3-(3-Chloro-4-fluorophenyl)-7-iodo-5-methoxyfuro[2,3-c]pyridine-2,3-diamine], the IC50 at IDO1 in HeLa cells was less than 200 nM; in assay [1], more than 2000 nM; in assay [2], less than 200 nM.

For `Cc1cc(C)cc(-c2nccc3c(Nc4ccc(F)c(Cl)c4)c(N)oc23)c1` [Compound 277, N^3-(3-Chloro-4-fluorophenyl)-7-(3,5-dimethylphenyl)furo[2,3-c]pyridine-2,3-diamine], the 50% inhibitory concentration (IC50) at IDO1 in HeLa cells is less than 200 nM; in assay [1], 500 to 2000 nM; in assay [2], less than 200 nM.

Regarding `CCc1cccc(Nc2c(N)oc3cnccc23)c1` [Compound 19, N^3-(3-Ethylphenyl)furo[2,3-c]pyridine-2,3-diamine], the IC50 at IDO1 in HeLa cells was 200 to 1000 nM; in assay [1], more than 2000 nM; in assay [2], 200 to 1000 nM.

`Cc1cc(-c2nccc3c(Nc4cccc(F)c4)c(N)oc23)ccn1` [Compound 243, N^3-(3-Fluorophenyl)-7-(2-methylpyridin-4-yl)furo[2,3-c]pyridine-2,3-diamine]: the half-inhibitory concentration (IC50) against IDO1 in HeLa cells was less than 200 nM; in assay [1], less than 500 nM; in assay [2], less than 200 nM.

On to `Nc1oc2c(-c3ccc4ccccc4c3)nccc2c1Nc1ccc(F)c(Cl)c1` [Compound 247, N^3-(3-Chloro-4-fluorophenyl)-7-(naphthalen-2-yl)furo[2,3-c]pyridine-2,3-diamine], for which the figures for the IC50 (against IDO1 in HeLa cells; in assay [1]; in assay [2]) were less than 200 nM, more than 2000 nM and less than 200 nM, respectively.

Regarding `N#Cc1nccc2c(Nc3ccc(F)c(Cl)c3)c(N)oc12` [Compound 103, 2-Amino-3-((3-chloro-4-fluorophenyl)amino)furo[2,3-c]pyridine-7-carbonitrile], the IC50 was less than 200 nM at IDO1 in HeLa cells, less than 500 nM in assay [1] and less than 200 nM in assay [2].

Regarding `COc1cccc(-c2nccc3c(Nc4ccc(F)c(Cl)c4)c(N)oc23)c1` [Compound 90, N^3-(3-Chloro-4-fluorophenyl)-7-(3-methoxyphenyl)furo[2,3-c]pyridine-2,3-diamine], the results for the half-inhibitory concentration (IC50) (against IDO1 in HeLa cells; in assay [1]; in assay [2]) were less than 200 nM, 500 to 2000 nM and less than 200 nM, respectively.

Consider `Nc1oc2c(-c3ccncc3)nc(F)cc2c1Nc1ccc(F)c(Cl)c1` [Compound 180, N^3-(3-Chloro-4-fluorophenyl)-5-fluoro-7-(pyridin-4-yl)furo[2,3-c]pyridine-2,3-diamine], for which the IC50 is less than 200 nM against IDO1 in HeLa cells, 500 to 2000 nM in assay [1] and less than 200 nM in assay [2].

As for `Nc1oc2c(-c3ccc(F)c(F)c3)nccc2c1Nc1ccc(F)c(Cl)c1` [Compound 170, N^3-(3-chloro-4-fluorophenyl)-7-(3,4-difluorophenyl)furo[2,3-c]pyridine-2,3-diamine], the half-maximal inhibitory concentration (IC50) (at IDO1 in HeLa cells; in assay [2]) was less than 200 nM in each case.

On to `N#Cc1ccc(-c2cccc3c(Nc4ccc(F)c(Cl)c4)c(N)sc23)cc1` [Compound 212, 4-(2-Amino-3-((3-chloro-4-fluorophenyl)amino)benzo[b]thiophen-7-yl)benzonitrile], for which the half-maximal inhibitory concentration (IC50) (against IDO1 in HeLa cells; in assay [2]) was less than 200 nM throughout.

Take `COc1ccc(-c2nccc3c(Nc4ccc(F)c(Cl)c4)c(N)oc23)cc1` [Compound 101, N^3-(3-Chloro-4-fluorophenyl)-7-(4-methoxyphenyl)furo[2,3-c]pyridine-2,3-diamine]: the IC50 (on IDO1 in HeLa cells; in assay [2]) was less than 200 nM in each case.

In the case of `Nc1oc2c(Cc3ccccc3)nccc2c1Nc1ccc(F)c(Cl)c1` [Compound 86, 7-Benzyl-N^3-(3-chloro-4-fluorophenyl)furo[2,3-c]pyridine-2,3-diamine], the half-inhibitory concentration (IC50) (at IDO1 in HeLa cells; in assay [2]) was less than 200 nM each time.

The IC50 is the point on the concentration scale where inhibition reaches its midpoint.
